Results as given in PubChem BioAssay (NCI).
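Assay format: 96-well plates, 48-hour exposure. TGI is the concentration that stops growth completely.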

Assays:
Test in all cases: NCI-60 cell line screen, 48 h
786-0 renal = system: 786-0 renal
A549 NSCLC = system: A549 NSCLC
BT-549 breast = system: BT-549 breast
CAKI-1 renal = system: CAKI-1 renal
HCC-2998 colon = system: HCC-2998 colon
HCT-116 colon = system: HCT-116 colon
HS 578T breast = system: HS 578T breast
HT29 colon = system: HT29 colon
K-562 leukemia = system: K-562 leukemia
MCF7 breast = system: MCF7 breast
OVCAR-3 ovarian = system: OVCAR-3 ovarian
PC-3 prostate = system: PC-3 prostate
SF-268 CNS = system: SF-268 CNS
SNB-19 CNS = system: SNB-19 CNS
SW-620 colon = system: SW-620 colon
TK-10 renal = system: TK-10 renal
CCRF-CEM leukemia = system: CCRF-CEM leukemia

Compound | TGI (786-0 renal) | TGI (A549 NSCLC) | TGI (BT-549 breast) | TGI (CAKI-1 renal) | TGI (HCC-2998 colon) | TGI (HCT-116 colon) | TGI (HS 578T breast) | TGI (HT29 colon) | TGI (K-562 leukemia) | TGI (MCF7 breast) | TGI (OVCAR-3 ovarian) | TGI (PC-3 prostate) | TGI (SF-268 CNS) | TGI (SNB-19 CNS) | TGI (SW-620 colon) | TGI (TK-10 renal) | TGI (CCRF-CEM leukemia)
C=CCn1c(-c2cc(C(C)(C)C)c(O)c(C(C)(C)C)c2)cs/c1=N\C(P(=O)(O)O)P(=O)(O)O | > 100 µM | > 100 µM | > 100 µM | > 100 µM | > 100 µM | > 100 µM | > 100 µM | > 100 µM | > 100 µM | > 100 µM | > 100 µM | > 100 µM | > 100 µM | > 100 µM | > 100 µM | > 100 µM | 
COc1ccc(C=Nc2ccc(-c3nc4ccccc4s3)cc2)cc1OC | 44.3 µM | > 100 µM | > 100 µM | > 100 µM | 40 µM | > 100 µM | > 100 µM | > 100 µM | > 100 µM |  | 51.9 µM | 69.9 µM | > 100 µM | > 100 µM | > 100 µM | 69 µM | 55 µM
O=C(O)c1cc2ccccc2c(Cc2c(O)c(C(=O)O)cc3ccccc23)c1O | > 100 µM | > 100 µM | > 100 µM | > 100 µM | > 100 µM | > 100 µM | > 100 µM | > 100 µM | > 100 µM |  | > 100 µM | > 100 µM | > 100 µM | > 100 µM | > 100 µM | > 100 µM | > 100 µM
COc1cc(C2CC(C)(N3CCOCC3)Oc3cc4c(cc32)OCO4)cc(OC)c1OC (stereo not drawn) | 11.5 µM | > 100 µM | > 100 µM | 72.1 µM | 2.11 µM | > 100 µM | > 56.2 µM |  | > 100 µM | > 100 µM | > 100 µM | > 100 µM | > 100 µM | > 100 µM | > 100 µM |  | 
COC(=O)[C@H](CNC(=O)/C=C/c1ccc(OC(C)=O)c(OC(C)=O)c1)NC(=O)/C=C/c1ccc(OC(C)=O)c(OC(C)=O)c1 | > 100 µM | > 100 µM | > 100 µM | > 100 µM | > 100 µM | > 100 µM | > 100 µM | > 100 µM | > 100 µM | > 100 µM | > 100 µM | > 100 µM |  | > 100 µM | > 100 µM |  | > 100 µM
COC(=O)C1OC(O[C@H]2CC[C@]3(C)[C@H]4CC=C5[C@@H]6CC(C)(C)CC[C@]6(C(=O)OC)CC[C@@]5(C)[C@]4(C)CC[C@H]3C2(C)C)C(O)C(O)C1O (stereo partly drawn) | 19.2 µM | 22.5 µM | 32.1 µM | 21.8 µM | 20.3 µM | 26.2 µM | 46.8 µM | 22.9 µM | 46.3 µM | 29.2 µM | 15.5 µM | 28.7 µM | 39.3 µM | 31.1 µM | 34.6 µM |  | 23.2 µM
